Laboratory results taken from US5063229A, “Imidazolo [1,2-a]pyrimidines and medical use thereof” (Roussel Ulcaf, priority 1986, dated 1991).

Test system: rat peritoneal neutrophils
Assay: Inhibition of ionophore-stimulated release of free arachidonic acid from [14C]-arachidonic acid pre-labelled rat peritoneal neutrophils
Format: cell-based
Details: read-out: IC50, concentration required to inhibit by 50% compared to controls the release of radiolabelled products into supernatant liquid
Description: The inhibition of ionophore-stimulated release of free arachidonic acid from [^14 C]-arachidonic acid pre-labelled rat peritoneal neutrophils was studied using modifications of the method of Ahnfelt-Ronne and Arrigoni-Martelli [Biochemical Pharmacol., (1982) Vol. 31, p. 2619]. The results below show the micromolar concentrations of test compound required to inhibit, by 50% compared to controls, the release of radiolabelled products into supernatant liquid (IC50 -μM).

IC50 | Structure (SMILES)
6.8 µM | C=C(C)C(=O)c1nc2nc(SC)c(CC)c(C)n2c1Br [Example 1, 1-(3-bromo-6-ethyl-5-methyl-7-methylthio-imidazo[1,2-a]pyrimidin-2-yl)-2-methyl-2-propen-1-one]
17 µM | C=C(C)C(=O)c1nc2nc(OC)c(CC)c(C)n2c1Br [Example 2, (3-bromo 6-ethyl 7-methoxy 5-methylimidazo [1,2-a]pyrimidin-2-yl) isopropenyl methanone]
21 µM | C=C(C)C(=O)c1nc2nc(OC)c(CC)c(C)n2c1Cl [Example 3, (3-chloro 6-ethyl 7-methoxy 5-methylimidazo [1,2-a]pyrimidin-2-yl) isopropenyl methanone]
7.4 µM | C=C(C)C(=O)c1nc2nc(OC)cc(C)n2c1Br [Example 4]
1.7 µM | C=CC(=O)c1nc2nc(OC)c(CC)c(C)n2c1Br [Example 5, (3-bromo 6-ethyl 7-methoxy 5-methylimidazo [1,2-a]pyrimidin-2-yl) ethenyl methanone]
3.8 µM | C=C(C)C(=O)c1cn(-c2ccc(CC)cc2)c(SC)n1 [Example 6, [1-(4-ethylphenyl) 2-imidazol-4-yl] isopropenyl methanone]
2.5 µM | C=C(C)C(=O)c1nc(SC)n(-c2ccc(CC)cc2)c1Br [Example 7, [1-(4-ethylphenyl) 5-bromo 2-thiomethylimidazol-4-yl] isopropenyl methanone]
7.2 µM | C=C(C)C(=O)c1nc(SC)n(-c2ccc(OC)cc2)c1Br [Example 8, [1-(4-methoxyphenyl) 5-bromo 2-thiomethylimidazol-4-yl] isopropenyl methanone]
9.1 µM | C=C(C)C(=O)c1nc(SC)n(-c2ccc(OC)cc2)c1Cl [Example 9, [1-(4-methoxyphenyl) 5-chloro 2-thiomethylimidazol-4-yl] isopropenyl methanone]
10 µM | C=C(C)C(=O)c1nc(SC)n(-c2ccc(C)cc2)c1Br [Example 10, [1-(4-methylphenyl) 5-bromo 2-thiomethylimidazol-4-yl] isopropenyl methanone]
3.7 µM | C=C(C)C(=O)c1nc(SC(C)C)n(-c2ccc(C)cc2)c1Br [Example 11, [1-(4-methylphenyl) 5-bromo 2-thioisopropylimidazol-4-yl] isopropenyl methanone]
15 µM | C=C(C)C(=O)c1nc(SC)n(-c2ccc(F)cc2)c1Br [Example 12, [1-(4-fluorophenyl) 5-bromo 2-thiomethylimidazol-4-yl] isopropenyl methanone]
2.3 µM | C=CC(=O)c1nc(SC)n(-c2ccc(OC)cc2)c1Br [Example 13, [1-(4-methoxyphenyl) 5-bromo 2-thiomethylimidazol-4-yl] ethenyl methanone]
> 10 µM | C=C(C)C(=O)c1nc(SC)n(-c2ccc(O)cc2)c1Br [Example 14, [5-bromo-1-(4-hydroxyphenyl)-2-methylthioimidazol-4-yl]-2-methyl-2-propen-1-one]
17 µM | C=C(C)C(=O)c1nc(SC(C)C)n(CC)c1Br [Example 15, (1-ethyl 5-bromo 2-thioisopropyl imidazol-4-yl) isopropenyl methanone]
4.4 µM | C=C(C)C(=O)c1nc([S+]([O-])C(C)C)n(-c2ccc(CC)cc2)c1Cl (stereo not drawn) [Example 16, [5-chloro-1-(4-ethylphenyl)-2-(prop-2-ylsulfinyl)-imidazol-4-yl]-2-methyl-2-propen-1-one]
12 µM | CCc1c(OC)nc2nc(C(=O)C#Cc3ccccc3)cn2c1C [Example 18, (6-ethyl 7-methoxy 5-methylimidazo [1,2-a]pyrimidin-2-yl) phenylethynyl methanone]
16 µM | CCc1c(OC)nc2nc(C(=O)C#CC(C)(C)C)cn2c1C [Example 19, 1-(6-ethyl 7-methoxy 5-methylimidazo [1,2-a]pyrimidin-2-yl) (3,3-dimethylbut-1-ynyl) methanone]
4.2 µM | CCc1c(OC)nc2nc(C(=O)C#CC(C)(C)C)c(Br)n2c1C [Example 20, (3-bromo 6-ethyl 7-methoxy 5-methylimidazo [1,2-a]pyrimidin-2-yl) (3,3-dimethylbut-1-ynyl) methanone]
1.5 µM | CCc1c(OC)nc2nc(C(=O)C#Cc3ccccc3)c(Br)n2c1C [Example 21, (3-bromo 6-ethyl 7-methoxy 5-methylimidazo [1,2-a]pyrimidin-2-yl) (2-phenylethy-1-yl) methanone]
59 µM | CCc1c(OC)nc2nc(C(=O)C#CCO)c(Br)n2c1C [Example 22, 1-(3-bromo-6-ethyl-7-methoxy-5-methyl-imidazo[1,2-a]pyrimidin-2-yl)-4-hydroxy-2-butyn-1-one]
46 µM | CCc1c(OC)nc2nc(C(=O)C#CCO)cn2c1C [Example 23, 1-(6-ethyl-7-methoxy-5-methylimidazo[1,2-a]pyrimidin-2-yl)-4-hydroxy-2-butyn-1-one]
7.2 µM | CC#CC(=O)c1nc2nc(OC)c(CC)c(C)n2c1Br [Example 24, (3-bromo 6-ethyl 7-methoxy 5-methylimidazo [1,2-a]pyrimidin-2-yl) (propyn-1-ynyl) methanone]
28 µM | C=C(C)C(=O)c1nc2ccccn2c1Br [Example 25, (3-bromoimidazo [1,2-a]pyridin-2-yl) isopropenyl methanone (chlorhydrate)]
> 100 µM | C=C(C)C(=O)c1cn2ccccc2n1 [Example 26, (imidazo [1,2-a]pyridin-2-yl) isopropenyl methanone]
41 µM | O=C(C#Cc1ccccc1)c1cn2ccccc2n1 [Example 27, (imidazo [1,2-a]pyridin-2-yl) (2-phenylethyn-1-yl) methanone]
5.2 µM | O=C(C#Cc1ccccc1)c1nc2ccccn2c1Br [Example 28, 3-bromoimidazo [1,2-a] pyridin-2-yl (2-phenylethyn-1-yl) methanone]
